{
  "source": "patent US12637454B2",
  "about": "“Heterocyclic monoacylglycerol lipase (MAGL) inhibitors” (Hoffmann-La Roche Inc., priority 2019, dated 2026)",
  "molecular_target": "T1, MAGL (Homo sapiens, UniProt Q99685)",
  "T1 sequence (Q99685 1-303)": "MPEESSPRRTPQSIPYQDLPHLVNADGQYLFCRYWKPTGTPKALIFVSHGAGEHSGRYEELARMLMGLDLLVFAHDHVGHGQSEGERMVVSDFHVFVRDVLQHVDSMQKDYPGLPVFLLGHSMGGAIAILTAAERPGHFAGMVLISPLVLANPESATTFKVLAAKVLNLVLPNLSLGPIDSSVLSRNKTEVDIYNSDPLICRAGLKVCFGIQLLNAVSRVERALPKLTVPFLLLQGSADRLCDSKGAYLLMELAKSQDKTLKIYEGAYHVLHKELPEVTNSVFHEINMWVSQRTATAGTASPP",
  "assay": "2-AG assay (MAGL inhibitory activity, hydrolysis of 2-arachidonoylglycerol followed by mass spectrometry)",
  "format": "biochemical",
  "conditions": "50 pM MAGL, 8 μM 2-arachidonoylglycerol, 15 min preincubation, 30 min incubation at RT",
  "outline": "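MAGL at 50 pM preincubated 15 min at RT with compound (12.5 μM to 0.8 pM, 3-fold) in 50 mM TRIS, 1 mM EDTA, 0.01% Tween. Reaction with 8 μM 2-arachidonoylglycerol ran 30 min at RT, quenched with ACN; arachidonic acid measured by SPE-MS/MS as ratio to d8-arachidonic acid.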",
  "data": [
    {"smiles": "Cn1c(Cl)c(C(=O)N2CCN3C[C@@](O)(c4ccc(Cl)cc4)CC[C@@H]3C2)ccc1=O", "note": "[Example 12, 5-[(7S,9aR)-7-(4-chlorophenyl)-7-hydroxy-3,4,6,8,9,9a-hexahydro-1H-pyrido[1,2-a]pyrazine-2-carbonyl]-6-chloro-l-methylpyridin-2-one]", "values": [
      {"measurement": "IC50", "value": 4.46, "unit": "µM"}
    ]}
  ]
}
